From patent US20070148660A1, “Treatment of maladaptive substance use with H-ras antagonists” (The Regents of the University of California, priority 2005, published 2007)

Assays:
[1] = tested on: GluR1 subunit of the AMPAR; conditions: 100 mM ethanol, 15 min, hippocampal slices
Experimental: (§1) Transverse hippocampal slices ([…]) were prepared from 10- to 12-week-old C57BL/6J mice. Slices were allowed to recover for 90 min in artificial cerebrospinal fluid (aCSF) saturated with 95% O2/5% CO2 containing (in mM): 126 NaCl, 1.2 KCl, 1.2 NaH2PO4, 1.2 MgCl2, 2.4 CaCl2, 18 NaHCO3, and 11 glucose. Following recovery, slices were treated with aCSF (control) or ethanol at room temperature, after which the slices were rinsed in cold aCSF, and used either for cross-linking experiments, for Ras activity assay, or for immunoprecipitation. In experiments using Tat-H-Ras DN or the Tat-peptide, the slices were pretreated with either aCSF (control) or 2 μM Tat-H-Ras DN or Tat-peptide for 2 hrs at room temperature, followed by ethanol treatments.
(§2) Cross-linking was performed as described previously (22), with minor modifications. Following treatment, the slices were placed in cold aCSF in the presence or absence of 2 mg/ml of the cross-linking reagent BS^3 for 45 min at 4° C. while shaking. Slices were then rinsed three times with cold aCSF containing 20 mM Tris (pH 7.6), followed by sonication in cold homogenization buffer (10% SDS, 10 mM EDTA, 100 mM Tris (pH 8.0), and protease and phosphatase inhibitor cocktails). The protein concentration was determined using the BCA assay, followed by SDS-PAGE and Western blot analysis. Data are expressed as ratio of normalized surface expressed or internalized receptors to the total receptor levels.
(§3) Proteins were separated by SDS-PAGE and blotted onto a nitrocellulose membrane. After blocking, the membranes were incubated with the specific primary antibody, followed by horseradish peroxidase-conjugated secondary antibody. Detection was obtained followed by enhanced chemiluminescent reaction (Amersham Biosciences), and processed using the STORM PhosphoImager (Amersham Biosciences). Results were quantified by NIH Image 1.61.

NR1 subunit of the NMDAR = conditions: 100 mM ethanol, 15 min, hippocampal slices
Experimental: as §1, §2, §3

NR2B subunit = conditions: 100 mM ethanol, 15 min, hippocampal slices
Experimental: as §1, §2, §3

NR2A = conditions: 100 mM ethanol, 15 min, L(-tk) cells NR1+NR2A
Experimental: (§4) L(−tk) were cultured on 100 mm plates. When cells reached 75% confluency, they were transfected with 5 μg of PSD95-GFP cDNA using LipofectAMINE PLUS in accordance with the manufacturer's instructions. 24 hrs after transfection, the expression of the NMDAR subunits NR1+NR2A or NR1+NR2B was induced with […] dexamethasone in DMEM containing 10% FBS, and 0.5 mM ketamine as previously described (21). After 3 days of induction, the cross-linking or immunoprecipitation studies were conducted. Homogenates were obtained as described in (17).
as §2
(§5) Proteins were separated by SDS-PAGE and blotted onto a nitrocellulose membrane. […] Results were quantified by NIH Image 1.61.

[2] = tested on: NR2A-adaptin β2 association; test: Co-immunoprecipitation of NR2A and adaptin β2, hippocampal slices; format: cell-based, mouse; conditions: 100 mM ethanol, 15 min
Experimental: as §1
The treated slices were homogenized in ice-cold buffer containing 1% deoxycholate, protease and phosphatase inhibitors and (in mM): 250 sucrose, 20 Tris-HCl (pH 7.5), 2 EDTA and 10 EGTA. 500 μg of the protein was diluted with 1× immunoprecipitation buffer (1% Triton X-100 and (in mM): 150 NaCl, 10 Tris HCl (pH 7.4), 1 EDTA, 1 EGTA and 0.2 sodium orthovanadate) and incubated with 5 μg of the appropriate antibody, followed by an overnight incubation at 4° C. with protein G agarose beads. […]
as §5

[3] = tested on: NR2A-adaptin β2 association; conditions: 100 mM ethanol, 15 min, L(-tk) cells NR1+NR2A + PSD-95
Experimental: as §4
(§6) The treated slices were homogenized in ice-cold buffer containing 1% deoxycholate, protease and phosphatase inhibitors and (in mM): 250 sucrose, 20 Tris-HCl (pH 7.5), 2 EDTA and 10 EGTA. 500 μg of the protein was diluted with 1× immunoprecipitation buffer (1% Triton X-100 and (in mM): 150 NaCl, 10 Tris HCl (pH 7.4), 1 EDTA, 1 EGTA and 0.2 sodium orthovanadate) and incubated with 5 μg of the appropriate antibody, followed by an overnight incubation at 4° C. with protein G agarose beads. The beads were extensively washed, re-suspended in 2× sample buffer and boiled for 5-10 min. The samples were then subjected to SDS-PAGE followed by Western blotting with the appropriate antibodies.
as §5

NR2B-adaptin association = conditions: 100 mM ethanol, 15 min, L(-tk) cells NR1+NR2B + PSD-95
Experimental: as §4, §6, §5

Src kinase = conditions: 100 mM ethanol, 15 min, hippocampal slices
Experimental: as §1, §6, §3

adaptin β2 with TrkB = conditions: 100 mM ethanol, 15 min, hippocampal slices
Experimental: as §1, §6, §3

[4] = tested on: adaptin β2 with the AMPAR subunit GluR1; conditions: 100 mM ethanol, 15 min, hippocampal slices
Experimental: as §1, §6, §3

Ras = Ras activity assay (Raf-1-Ras binding domain GST-agarose), hippocampal slices; format: cell-based, mouse; conditions: 100 mM ethanol, 15 min, hippocampal slices
Experimental: The treated hippocampal homogenates (250 μg) were incubated with […] of Raf-1-Ras binding domain GST-agarose for 45 min at 4° C. while rotating, as per manufacturer's instructions. […] Results were quantified by NIH Image 1.61.

NMDAR = test: NMDAR-mediated fEPSPs, hippocampal CA1 field recording; format: cell-based, mouse; conditions: bath application of 80 mM ethanol, n=11
Experimental: Electrophysiological recordings were performed in C57BL/6J mice ranging from P21 to P26. Briefly, mice were anesthetized with halothane and decapitated as per University of California, San Francisco animal care guidelines. Horizontal sections of the hippocampus ([…]) were prepared with a vibratome (Leica, Nussloch, Germany). Slices were placed in a holding chamber and allowed to recover for at least 1 hr before being placed in the recording chamber and superfused with aCSF saturated with 95% O2/5% CO2 and containing (in mM): 119 NaCl, 1.6 KCl, 1.0 NaH2PO4, 1.3 MgCl2 (for EPSCs) or 0.01 MgCl2 (for field excitatory postsynaptic potentials (fEPSPs)), 2.5 CaCl2, 26.2 NaHCO3 and 11 glucose. […]
fEPSPs were recorded using a MultiClamp 700A amplifier (Axon Instruments, Union City, Calif.) with […] patch pipettes filled with 1 M NaCl and 25 mM HEPES. To evoke fEPSPs, Schaffer collateral/commissural afferents in hippocampal CA1 region were stimulated with 0.1 Hz pulses using steel bipolar microelectrodes at intensities adjusted to produce an evoked response that was 50% of the maximal recorded fEPSP for each recording. fEPSPs were filtered at 1 kHz, digitized at 10 kHz and collected on-line using with pClamp 9 (Axon Instrument, Union City, Calif.). […]

CCO [ethanol]
surface expression of the GluR1 subunit [1]: no change | surface expression of the NR1 subunit (NR1 subunit of the NMDAR): no change | membranal localization of the NR2B subunit (NR2B subunit): did not alter | internalized pool of NR2A (NR2A): increase | association of adaptin β2 with NR2A and vice-versa [2]: significantly increased | association of NR2A with adaptin β2 [3]: increase | NR2B-adaptin association (NR2B-adaptin association): no change | decrease in the levels of active phosphorylated Src (Src kinase): approximately 40% | interaction between TrkB and adaptin β2 (adaptin β2 with TrkB): no change | interaction between GluR1 and adaptin β2 [4]: no change | increase of Ras-GTP levels over the control (Ras): at least 2 fold | inhibition of NMDAR-mediated fEPSPs (NMDAR): 47+8%
